Assay results from publication PMC11089204 (Frontiers in Pharmacology, 2024).

How the values were obtained:
[1] = Pharmacokinetics and metabolites in mouse plasma after oral psilocybin; format: in vivo, C57BL/6J mice; details: for half-life / Cmax / Tmax: male, C57BL/6J, po, n = 5; for half-life: mouse, plasma, 3 mg/kg, read-out: elimination half-life t1/2 (mean ± SD) (converted); for Cmax: read-out: Cmax (mean ± SD); for Tmax: read-out: tmax (mean ± SD)
Protocol: C57BL/6J adult male mice (Janvier, Le Genest-Saint-Isle, France) were maintained in littermate pairs in standard cages (containing sawdust, a sleeping chamber, tissue paper, and a wood stick) with water and pellet food available ad libitium. The colony room was on a reversed light-dark cycle (dark phase 07:00 to 19:00) with temperature at 22°C and humidity at 50–60%. A total of 10 mice were dosed orally with either 3 mg/kg bodyweight psilocybin (n = 5) or saline solution (n = 5). Dosing and blood sampling were conducted between 09:00 and 13:00. The mouse was placed in a plastic restrainer with the tail protruding through a hole in the end of the tube. The tail was immersed in warm water for 1 min for vasodilation and then a small incision was made on the lateral tail surface near the distal tip. 50 μL of blood was massaged gently into an EDTA-coated capillary blood tube (Mircovette, Sarstedt, Nümbrecht, Germany). The first (baseline) blood sample was collected directly before compound administration via oral gavage and the mouse was then returned to the home cage. Further blood samples were collected at 15, 30, 60, and 120 min post-treatment. Each sample was drawn from the same incision site, with mice maintained in the home cage in the intervening periods. The blood samples were stored on ice and centrifuged for 10 min at 780 × g and 4°C. Subsequently, the plasma was transferred into cryotubes (Protein LoBind, Eppendorf) and stored at −80 °C until analysis. All procedures were conducted under a permit for animal experimentation (ZH038/2022) issued by the Veterinary Office Zurich in accordance with the Animal Protection Act (1978) of Switzerland. The use of psilocybin was authorized by the Federal Office of Public Health (FOPH).
Pharmacokinetic parameters were calculated using Phoenix WinNonlin software (version 8.1.0, Certara, Princeton, USA). The elimination half-life (t1/2, min) was assessed as t1/2 = ln(2)/λ, while the elimination constant was calculated by linear regression in the terminal elimination phase. The maximal plasma concentration (Cmax, ng/mL) and the time to reach this concentration (tmax, h) were direct read-outs of the graphical plots.

[2] = cited from earlier work; for fraction of administered psilocybin dose excreted in urine: oral psilocybin, within 24 h (time not stated for 4-HIAA)
[3] = target: T1, human 5-HT2A receptor (Homo sapiens, UniProt P28223); assay: 5-HT activation potency (IP1 accumulation), 5-HT2A; format: cell-based; design: expressed in transfected cells; details: NIH/3T3 cells, read-out: h5-HT2A Activation potency EC50 ± SD
Protocol: (§1) NIH/3T3 cells stably expressing the human 5-HT1A, 5-HT2A, and 5-HT2B receptors were seeded at a density of 3,000 cells (5-HT1A and 5-HT2A) or 4,000 cells (5-HT2B) in 384-well plates using Opti-MEM medium from Gibco (ThermoFisher, Life Technologies, Zug, Switzerland). Subsequently, the test compounds were introduced, and the plates were incubated for 90 min at 37°C, followed by a 60 min incubation with Anti-IP1-Cryptate and IP1-d2 at room temperature. The formation of stimulated IP1 was quantified by homogeneous time-resolved fluorescence (HTRF) measurements using a BioTek Synergy H1 microplate reader (Agilent Technologies, Basel, Switzerland). The obtained raw data for receptor activation were subjected to normalization, wherein the baseline signal was set at 0%, and the maximum signal stimulated by 5-HT at the specific receptor was established as 100%.

[4] = target: T1, human 5-HT2A receptor; assay: Radioligand receptor binding, 5-HT2A; design: expressed in transfected cells; host or cells: HEK 293 membrane preparations; details: HEK 293 membranes, [3H]ketanserin; read-out: h5-HT2A Receptor binding Ki ± SD
[5] = Metabolites in human plasma after oral psilocybin (reanalysed study samples); details: for Tmax: human, plasma, po, 30 mg
[6] = target: T2, human 5-HT2B receptor (Homo sapiens, UniProt P41595); assay: 5-HT activation potency (IP1 accumulation), 5-HT2B; format: cell-based; details: NIH/3T3 cells, read-out: h5-HT2B Activation potency EC50 ± SD
T2 construct: expressed in transfected cells; host or cells: NIH/3T3
Protocol: as §1

[7] = target: T3, recombinant CYP3A4 (Homo sapiens, UniProt P08684); assay: Incubation with recombinant CYP3A4 enzymes; format: in vitro ADME; details: for formation of metabolite from psilocin: rec. CYP3A4
T3 construct: purchased Corning Life Sciences B.V
Protocol: Corning UltraPool human liver microsomes (HLM) 150 (20 mg/mL), human intestinal microsomes (HIM) pool (10 mg/mL) as well as recombinant human CYP enzymes (with P450 oxidoreductase, OR) including CYP1A2+OR (0.5 nmol), CYP2B6+OR (0.5 nmol), CYP2C8+OR (1.0 nmol), CYP2C9*1+OR (1 nmol), CYP2C19+OR (0.5 nmol), CYP2D6*1+OR (0.5 nmol), CYP2E1+OR + cytochrome b5 (1 nmol), CYP3A4+OR + cytochrome b5 (0.5 nmol), MAO-A (5 mg/mL), MAO-B (5 mg/mL), and UGT1A10 (5 mg/mL) were purchased from Corning Life Sciences B.V (Amsterdam, Netherlands). All microsomes and recombinant enzyme solutions were aliquoted and stored at −80 °C until further use.
The total volume of the reaction mixture was 500 μL. […] Samples were either directly analyzed by liquid chromatography tandem mass spectrometry (LC-MS/MS) or briefly stored at −20°C until analysis.

[8] = target: T4, human 5-HT2C receptor (Homo sapiens, UniProt P28335); assay: biochemical; details: HEK 293 membranes, [3H]mesulergine; read-out: h5-HT2C Receptor binding Ki ± SD
T4 construct: expressed in transfected cells; host or cells: HEK 293 membrane preparations

[9] = mouse plasma, 3 mg/kg psilocybin p.o.
[10] = humans, ref Holze et al., 2022a
[11] = humans, single oral dose of 25 mg psilocybin, ref Kolaczynska et al., 2021, Holze et al., 2022a

T3 sequence (P08684 2-503 limits assumed): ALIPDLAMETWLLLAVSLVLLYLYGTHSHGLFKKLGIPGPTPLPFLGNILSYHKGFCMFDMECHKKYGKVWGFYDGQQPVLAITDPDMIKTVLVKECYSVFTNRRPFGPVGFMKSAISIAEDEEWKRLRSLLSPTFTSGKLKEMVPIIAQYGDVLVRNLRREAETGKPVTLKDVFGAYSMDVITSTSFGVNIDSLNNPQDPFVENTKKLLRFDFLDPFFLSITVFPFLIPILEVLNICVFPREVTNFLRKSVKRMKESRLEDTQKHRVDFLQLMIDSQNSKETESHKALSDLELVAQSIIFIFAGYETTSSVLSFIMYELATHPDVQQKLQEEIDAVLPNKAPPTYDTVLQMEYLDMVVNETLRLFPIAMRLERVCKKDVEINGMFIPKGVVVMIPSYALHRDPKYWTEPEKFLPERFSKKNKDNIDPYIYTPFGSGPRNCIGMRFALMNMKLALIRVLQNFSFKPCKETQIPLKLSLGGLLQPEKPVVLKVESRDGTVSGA
T1 sequence (P28223 whole entry): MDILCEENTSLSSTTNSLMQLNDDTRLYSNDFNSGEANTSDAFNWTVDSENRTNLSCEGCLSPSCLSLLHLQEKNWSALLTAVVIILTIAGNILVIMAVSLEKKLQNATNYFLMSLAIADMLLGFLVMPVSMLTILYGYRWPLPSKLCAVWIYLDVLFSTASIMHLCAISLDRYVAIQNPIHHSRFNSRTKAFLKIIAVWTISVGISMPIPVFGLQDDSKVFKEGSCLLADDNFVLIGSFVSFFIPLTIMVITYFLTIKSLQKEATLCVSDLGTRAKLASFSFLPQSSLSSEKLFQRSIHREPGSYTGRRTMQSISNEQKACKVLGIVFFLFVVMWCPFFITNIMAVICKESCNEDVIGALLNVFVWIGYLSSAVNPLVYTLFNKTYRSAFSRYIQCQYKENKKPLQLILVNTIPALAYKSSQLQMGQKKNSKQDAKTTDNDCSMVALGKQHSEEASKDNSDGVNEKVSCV
T4 sequence (P28335 33-458): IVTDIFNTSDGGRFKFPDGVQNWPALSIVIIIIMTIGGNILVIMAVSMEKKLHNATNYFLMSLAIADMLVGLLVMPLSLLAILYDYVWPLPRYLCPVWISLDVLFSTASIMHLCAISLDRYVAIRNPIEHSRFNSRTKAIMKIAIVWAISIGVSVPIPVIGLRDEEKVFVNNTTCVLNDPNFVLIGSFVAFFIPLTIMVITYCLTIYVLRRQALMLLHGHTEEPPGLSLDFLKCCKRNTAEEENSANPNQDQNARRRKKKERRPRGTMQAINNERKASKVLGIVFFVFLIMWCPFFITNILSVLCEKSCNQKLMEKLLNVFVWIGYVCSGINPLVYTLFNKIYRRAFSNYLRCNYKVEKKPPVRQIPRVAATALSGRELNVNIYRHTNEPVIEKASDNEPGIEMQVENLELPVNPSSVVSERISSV
T2 sequence (P41595 whole entry): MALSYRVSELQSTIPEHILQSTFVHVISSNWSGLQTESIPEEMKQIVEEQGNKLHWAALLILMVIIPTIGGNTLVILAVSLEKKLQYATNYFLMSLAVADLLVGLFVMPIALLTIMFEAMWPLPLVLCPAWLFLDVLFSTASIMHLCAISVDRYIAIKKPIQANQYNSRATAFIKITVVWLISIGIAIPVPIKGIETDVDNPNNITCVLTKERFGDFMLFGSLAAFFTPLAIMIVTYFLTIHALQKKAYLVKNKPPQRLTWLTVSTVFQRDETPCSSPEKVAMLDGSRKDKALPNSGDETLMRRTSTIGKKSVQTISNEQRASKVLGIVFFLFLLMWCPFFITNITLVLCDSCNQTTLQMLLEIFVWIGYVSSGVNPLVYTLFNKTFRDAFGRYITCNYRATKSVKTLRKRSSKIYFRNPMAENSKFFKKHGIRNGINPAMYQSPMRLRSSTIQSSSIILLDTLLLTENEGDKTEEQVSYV

SMILES	half-life [1, 9] [min]	Cmax [1, 9] [ng/mL]	Tmax [1, 9] [min]	fraction of administered psilocybin dose excreted in urine [2, 10]	EC50 [3] [µM]	Ki [4] [µM]	Tmax [5] [min]	EC50 [6] [µM]	formation of metabolite from psilocin [7]	Ki [8] [µM]	further results
O=C(O)Cc1c[nH]c2cccc(O)c12 [4-HIAA, 4-hydroxyindole-3-acetic acid]	45 ± 6.6	84.9 ± 17.7	18 ± 6.6	Around 33%	> 10	> 10	~150	> 10	neither observed	> 10	concentrations relative to psilocin (lower) ([1]; mouse plasma): 2 fold; elimination half-life in mice relative to humans (shorter) ([1]; mouse versus human): more than 2 fold; maximal concentrations relative to psilocin (higher) ([2]; humans, ref Holze et al., 2022a, Becker et al., 2022): 4–5 fold
CN(C)CCc1c[nH]c2cccc(O)c12 [psilocin, 4-hydroxy-N,N-dimethyltryptamine]	54.6 ± 6.6	198 ± 28	18 ± 6.6	1.5%			~150				time of peak plasma concentration ([2]; after oral administration, ref Griffiths et al., 2016, Johnson et al., 2017, Holze et al., 2022a): around 2 h; plasma elimination half-life in humans ([2]; humans, no reference given): approximately 2 h; elimination half-life (t1/2) [2, 11]: 120 to 180 min; psilocin plasma concentrations [2, 11]: 15 to 20 ng/mL; decrease of psilocin concentration / psilocin metabolized ([7]; 1,000 nM psilocin, rec. CYP3A4, 240 min): 40%; psilocin concentration ([7]; rec. CYP3A4, t = 0 min): 916 ± 145 nM; psilocin concentration ([7]; rec. CYP3A4, t = 240 min): 546 ± 41 nM; psilocin metabolized ([7]; rec. CYP3A4 with ketoconazole, 240 min): 26%; psilocin concentration ([7]; rec. CYP3A4 with ketoconazole, t = 0 min): 973 ± 133 nM; psilocin concentration ([7]; rec. CYP3A4 with ketoconazole, t = 240 min): 720 ± 71 nM
OCCc1c[nH]c2cccc(O)c12 [4-HTP, 4-hydroxytryptophol]					> 10	> 10		> 10	neither observed	> 10	detection in mouse plasma ([1]; 3 mg/kg psilocybin p.o.): could not be observed; detection in human plasma ([5]; 30 mg psilocybin p.o., n = 5): neither norpsilocin nor 4-HTP was detected
